Measured values from patent US11246929B2, “Combination of a protein kinase inhibitor and an additional chemotherapeutic agent” (Merck Patent GmbH, priority 2016, dated 2022).

What was measured:
[1] = tested on: human NCI-H526 SCLC xenograft; assay: NCI-H526 SCLC xenograft, combination with etoposide/cisplatin; type: in vivo
Experimental: The mice were acclimatized to the housing conditions for 1 week. […] Bedding consisted of aspen chips (E. Becker, Castrop-Rauxel). Room temperature was 24+/−2° C. and relative humidity was 50+/−10% at 15 air changes per hour. Drinking water (provided ad libitum) was supplemented with 1 mg/mL Chlorine and was adjusted to a pH of 6.5 with HCl. Sterile high protein maintenance diet for immunodeficient mice (Ssniff, Soest, product No V1244-72, γ-sterilized) was also provided ad libitum. The light cycle was set at 12 hrs light and 12 hrs darkness. Details of the study protocol are as follows:
Then the cell suspension (100 μL/animal) was subcutaneously inoculated in the right flank of immunodeficient CD1 mice.
Tumor measurements and calculations: When the tumors reached a volume of 96-214 mm^3 the animals were randomized into 7 treatment groups with 10 animals each. Tumor length (L) and width (W) were measured twice weekly by calipers. The tumor volume was calculated using the formula L×W2/2. Data were collected in Study Advantage™ (data collection system).
Treatment: dosing and scheduling per above.
T/C-value: The ability of a treatment to inhibit tumor growth was assessed at the end of each study by calculating the % T/C value according to following formulas: % T/C delta>0 calculation (mean): [(end tumor volume treatment−start tumor volume treatment)/(end tumor volume control−start tumor volume control)]×100] % T/C delta≤0 (regression) calculation (mean): [(end tumor volume treatment−start tumor volume treatment)/start tumor volume treatment]×100
Toxicity: The bodyweight change in % denotes the difference between the weight at start of treatment and the end of treatment. Changes of bodyweight during the treatment course are particularly important as it is considered a measure for presence or absence of treatment-related toxicity. A dosage producing a 20% body weight change (mean of group) or ≥10% drug deaths was considered an excessively toxic dosage. Animal body weights included the tumor weights.
Animals were treated with three 1-week cycles of chemotherapy consisting of Cisplatin (3 mg/kg once weekly) and Etoposide (4 mg/kg for three consecutive days per week).

DNA-PK (p-Ser2056) = target: T1, DNA-PK (p-Ser2056) (Homo sapiens, UniProt P78527); assay: IR-induced DNA-PK phosphorylation in tumor tissue, ELISA, HCT116 xenograft; type: in vivo; settings: IR 50 Gy
T1 construct: from tissue; host or cells: human tumor xenografts (FaDu, HCT116, WM164) grown in mice
Text: Following the induction of DSB by radiation therapy or other DNA damaging agents, the catalytic subunit of DNA-PK (DNA-PKc) is autophosphorylated at several serine and threonine residues. Ser2056 is one of the most prominent and best studied autophosphorylation sites. Because Ser2056 phosphorylation (p-Ser2056) correlated well with DNA-PK activation state it was chosen as the pharmacodynamics (PD) biomarker. Two different assay formats were established to measure p-Ser2056 in tumor tissue: ELISA and MSD format. In order to detect sequence reliable signal, IR was used at 50 Gy for the ELISA assay and 10 Gy for the more sensitive MSD assay.

22RV1 = assay: SRB growth inhibition, 93 cell lines panel; type: cell-based; settings: Homo sapiens; 22RV1, prostate; read-out: GI50 of etoposide (±Compound 1)
Experimental: (§1) 90 μl of cells, after a 48-hour pre-growth period, were treated by mixing with 10 μl of the compound-containing media (resulting in a final DMSO concentration of 0.1%).
(§2) This is the drug concentration causing a 50% reduction compared to the net protein increase in control cells during the drug incubation period. In other words, G150 is IC50 corrected for time zero. […] TGI was calculated from Ti=Tz. […] It was calculated as 100×[(Ti−Tz)/Tz]=−50.

5637 = assay: SRB growth inhibition, 93 cell lines panel; type: cell-based; settings: 5637, bladder; read-out: GI50 of etoposide (±Compound 1)
Experimental: as §1, §2

A549 = assay: SRB growth inhibition, 93 cell lines panel; type: cell-based; settings: Homo sapiens; A549, lung; read-out: GI50 of etoposide (±Compound 1)
Experimental: as §1, §2

C33A = assay: SRB growth inhibition, 93 cell lines panel; type: cell-based; settings: Homo sapiens, C-33-A, cervix, read-out: GI50 of etoposide (±Compound 1)
Experimental: as §1, §2

COLO205 = assay: SRB growth inhibition, 93 cell lines panel; type: cell-based; settings: Homo sapiens, COLO 205; COLO205, colon; read-out: GI50 of etoposide (±Compound 1)
Experimental: as §1, §2

EJ28 = assay: SRB growth inhibition, 93 cell lines panel; type: cell-based; settings: Homo sapiens, EJ-28; EJ28, bladder; read-out: GI50 of etoposide (±Compound 1)
Experimental: as §1, §2

HS578T = assay: SRB growth inhibition, 93 cell lines panel; type: cell-based; settings: Homo sapiens, Hs-578T, breast, read-out: GI50 of etoposide (±Compound 1)
Experimental: as §1, §2

HT29 = assay: SRB growth inhibition, 93 cell lines panel; type: cell-based; settings: Homo sapiens, HT-29; HT29, colon; read-out: GI50 of etoposide (±Compound 1)
Experimental: as §1, §2

KASUMI-1 = assay: SRB growth inhibition, 93 cell lines panel; type: cell-based; settings: Homo sapiens; KASUMI-1, hematological; read-out: GI50 of etoposide (±Compound 1)
Experimental: as §1, §2

MDAMB436 = assay: SRB growth inhibition, 93 cell lines panel; type: cell-based; settings: Homo sapiens, MDA-MB-436; MDAMB436, breast; read-out: GI50 of etoposide (±Compound 1)
Experimental: as §1, §2

MHHES1 = assay: SRB growth inhibition, 93 cell lines panel; type: cell-based; settings: Homo sapiens, MHH-ES-1; MHHES1, bone; read-out: GI50 of etoposide (±Compound 1)
Experimental: as §1, §2

MV4-11 = assay: SRB growth inhibition, 93 cell lines panel; type: cell-based; settings: Homo sapiens; MV4-11, hematological; read-out: GI50 of etoposide (±Compound 1)
Experimental: as §1, §2

PANC1 = assay: SRB growth inhibition, 93 cell lines panel; type: cell-based; settings: Homo sapiens, PANC-1; PANC1, pancreas; read-out: GI50 of etoposide (±Compound 1)
Experimental: as §1, §2

SKMEL5 = assay: SRB growth inhibition, 93 cell lines panel; type: cell-based; settings: Homo sapiens, SK-MEL-5; SKMEL5, skin; read-out: GI50 of etoposide (±Compound 1)
Experimental: as §1, §2

TE671 = assay: SRB growth inhibition, 93 cell lines panel; type: cell-based; settings: Homo sapiens, TE-671; TE671, muscle; read-out: GI50 of etoposide (±Compound 1)
Experimental: as §1, §2

COc1ccc([C@@H](O)c2cc(-c3ncnc4cc(N5CCOCC5)ccc34)c(F)cc2Cl)nn1 [Compound 1, (S)-[2-chloro-4-fluoro-5-(7-morpholin-4-yl-quinazolin-4-yl)-phenyl]-(6-methoxy-pyridazin-3-yl)-methanol]
efficacy by schedule ([1]; Compound 1 daily throughout the study vs separated from SoC by 7 h or days): better efficacy
body weight change ([1]; SoC combined with Compound 1): additional body weight loss
mean tumor volume ([1]; day 21, Compound 1 50 mg/kg daily + etoposide 4 mg/kg + cisplatin 3 mg/kg, n=10): 50 mm^3
decrease of mean tumor volume compared to starting volume ([1]; day 21, Compound 1 50 mg/kg daily + etoposide + cisplatin): about 67%
animals showing complete response ([1]; day 28, combination arm): 4/10
animals with regression ([1]; day 28, combination arm): 1/10
animals with stable disease ([1]; day 28, combination arm): 3/10
animals progression free ([1]; day 28, combination arm (Compound 1 + SoC)): 9/10
antitumor activity ([1]; in combination with Etoposide and Cisplatin): significantly enhanced antitumor activity
inhibition of IR-induced DNA-PK phosphorylation (Ser2056) (DNA-PK (p-Ser2056)): Dose-dependent inhibition

COc1cc([C@@H]2c3cc4c(cc3[C@@H](O[C@@H]3O[C@@H]5CO[C@@H](C)O[C@H]5[C@H](O)[C@H]3O)[C@H]3COC(=O)[C@H]23)OCO4)cc(OC)c1O [Etoposide]
GI50 (22RV1): 234 nM
GI50 5637: 685 nM
GI50 (A549): 390 nM
GI50 (C33A): 393 nM
GI50 (COLO205): 1050 nM
GI50 (EJ28): 440 nM
GI50 (HS578T): 874 nM
GI50 (HT29): 2220 nM
GI50 (KASUMI-1): 494 nM
GI50 (MDAMB436): 378 nM
GI50 (MHHES1): 227 nM
GI50 (MV4-11): 38 nM
GI50 (PANC1): 1920 nM
GI50 (SKMEL5): 558 nM
GI50 (TE671): 1150 nM
